Experiments:
Streptococcus milleri = assay: Substrate hydrolysis on Columbia agar; type: cell-based; settings: Streptococcus milleri wild; 300 mg/l; 18 hours
Streptococcus agalactiae = assay: Substrate hydrolysis on Columbia agar; type: cell-based; settings: Streptococcus agalactiae NCTC 8181; 300 mg/l; 18 hours
M. morganii = assay: Substrate hydrolysis on Columbia agar; type: cell-based; settings: 300 mg/l, 18 hours
Listeria ivanovii = assay: Substrate hydrolysis on Columbia agar; type: cell-based; settings: Listeria ivanovii PHLS wild; 300 mg/l; 18 hours
Enterococcus gellinarum = assay: Substrate hydrolysis on Columbia agar; type: cell-based; settings: Enterococcus gellinarum NCTC 11428; 300 mg/l; 18 hours
Salmonella alachia = assay: Substrate hydrolysis on Columbia agar; type: cell-based; settings: Salmonella alachia SAX 60; 300 mg/l; 18 hours
From the text: (§1) This was achieved using a densitometer.
(§2) The same method was used as in Example 1.

Vibrio mimicus = assay: Substrate hydrolysis on Columbia agar; type: cell-based; settings: Vibrio mimicus NCTC 11435; 300 mg/l; 18 hours
From the text: as §1, §2

Salmonella motevideo = assay: Substrate hydrolysis on Columbia agar; type: cell-based; settings: Salmonella motevideo SAX 55; 300 mg/l; 18 hours
From the text: as §1, §2

Shigella sonnei = assay: Substrate hydrolysis on Columbia agar; type: cell-based; settings: 300 mg/l, 18 hours
From the text: as §1, §2

Shigella flexneri = assay: Substrate hydrolysis on Columbia agar; type: cell-based; settings: 300 mg/l, 18 hours
From the text: as §1, §2

Shigella boydii = assay: Substrate hydrolysis on Columbia agar; type: cell-based; settings: 300 mg/l, 18 hours
From the text: as §1, §2

Vibrio furnissii = assay: Substrate hydrolysis on Columbia agar; type: cell-based; settings: Vibrio furnissii NCTC 11218; 300 mg/l; 18 hours
Serratia spp. = assay: Substrate hydrolysis on Columbia agar; type: cell-based; settings: 300 mg/l, 18 hours
Salmonella hadar = assay: Substrate hydrolysis on Columbia agar; type: cell-based; settings: Salmonella hadar SAX 57; 300 mg/l; 18 hours
Vibrio hollisae = assay: Substrate hydrolysis on Columbia agar; type: cell-based; settings: Vibrio hollisae NCTC 11640; 300 mg/l; 18 hours
E. coli = assay: Substrate hydrolysis on Columbia agar; type: cell-based; settings: 300 mg/l, 18 hours
Gram positive bacteria = assay: Substrate hydrolysis on Columbia agar, summary of screen; type: cell-based
Vibrio anguillarum = assay: Substrate hydrolysis on Columbia agar; type: cell-based; settings: Vibrio anguillarum NCTC 12159; 300 mg/l; 18 hours
Enterococcus casseflavus = assay: Substrate hydrolysis on Columbia agar; type: cell-based; settings: Enterococcus casseflavus NCTC 12361; 300 mg/l; 18 hours
Gram negative bacteria = assay: Substrate hydrolysis on Columbia agar, summary of screen; type: cell-based
Streptococcus pneumoniae = assay: Substrate hydrolysis on Columbia agar; type: cell-based; settings: Streptococcus pneumoniae NCTC 7465; 300 mg/l; 18 hours
Streptococcus oralis = assay: Substrate hydrolysis on Columbia agar; type: cell-based; settings: Streptococcus oralis NCTC11427; 300 mg/l; 18 hours
Salmonella oranienburg = assay: Substrate hydrolysis on Columbia agar; type: cell-based; settings: Salmonella oranienburg SAX 56; 300 mg/l; 18 hours
Streptococcus salivarius = assay: Substrate hydrolysis on Columbia agar; type: cell-based; settings: Streptococcus salivarius NCTC 8618; 300 mg/l; 18 hours
Serratia marcescens = assay: Substrate hydrolysis on Columbia agar; type: cell-based; settings: Serratia marcescens NCTC 10211; 300 mg/l; 18 hours
C. diphtheriae = assay: Substrate hydrolysis on Columbia agar; type: cell-based, Corynebacterium diphtheriae; settings: 300 mg/l, 18 hours
[1] = test system: Staphylococcus saprophyticus; assay: Substrate hydrolysis on Columbia agar; type: cell-based; settings: 300 mg/l, 18 hours
Salmonella panama = assay: Substrate hydrolysis on Columbia agar; type: cell-based; settings: Salmonella panama SAX 58; 300 mg/l; 18 hours
Vibrio metschnikovii = assay: Substrate hydrolysis on Columbia agar; type: cell-based; settings: Vibrio metschnikovii NCTC 8443; 300 mg/l; 18 hours
Vibrio cincinnatiensis = assay: Substrate hydrolysis on Columbia agar; type: cell-based; settings: Vibrio cincinnatiensis NCTC 12012; 300 mg/l; 18 hours

## 3′,4′-dihydroxyflavone-4′-β-D-glucopyranoside sodium salt [DHF-glucoside]
Streptococcus milleri
  Hydrolysis by Gram positive organisms: −
Streptococcus agalactiae
  Hydrolysis by Gram positive organisms: −
M. morganii; M. morganii MMO 1
  Hydrolysis by Gram negative bacteria: +
M. morganii; M. morganii MMO 2
  Hydrolysis by Gram negative bacteria: +
M. morganii; M. morganii NCTC 235
  Hydrolysis by Gram negative bacteria: −
Listeria ivanovii
  Hydrolysis by Gram positive organisms: ++
Enterococcus gellinarum
  Hydrolysis by Gram positive organisms: ++
Salmonella alachia
  Hydrolysis by Gram negative bacteria: −
Vibrio mimicus
  Hydrolysis by Gram negative bacteria: −
Salmonella motevideo
  Hydrolysis by Gram negative bacteria: −
Shigella sonnei; Shigella sonnei NCTC 8219
  Hydrolysis by Gram negative bacteria: −
Shigella sonnei; Shigella sonnei NCTC 8574
  Hydrolysis by Gram negative bacteria: −
Shigella sonnei; Shigella sonnei NCTC 8586
  Hydrolysis by Gram negative bacteria: −
Shigella sonnei; Shigella sonnei NCTC 9774
  Hydrolysis by Gram negative bacteria: −
Shigella sonnei; Shigella sonnei NCTC 10352
  Hydrolysis by Gram negative bacteria: −
Shigella flexneri; Shigella flexneri NCTC 8192
  Hydrolysis by Gram negative bacteria: −
Shigella flexneri; Shigella flexneri NCTC 9723
  Hydrolysis by Gram negative bacteria: −
Shigella flexneri; Shigella flexneri NCTC 9780
  Hydrolysis by Gram negative bacteria: −
Shigella boydii; Shigella boydii NCTC 9327
  Hydrolysis by Gram negative bacteria: −
Shigella boydii; Shigella boydii NCTC 9732
  Hydrolysis by Gram negative bacteria: −
Shigella boydii; Shigella boydii NCTC 9850
  Hydrolysis by Gram negative bacteria: −
Vibrio furnissii
  Hydrolysis by Gram negative bacteria: −
Serratia spp.; Serratia spp. SEX 1
  Hydrolysis by Gram negative bacteria: +
Serratia spp.; Serratia spp. SEX 2
  Hydrolysis by Gram negative bacteria: +
Salmonella hadar
  Hydrolysis by Gram negative bacteria: −
Vibrio hollisae
  Hydrolysis by Gram negative bacteria: −
E. coli; E. coli ECO 2
  Hydrolysis by Gram negative bacteria: −
E. coli; E. coli ECO 3
  Hydrolysis by Gram negative bacteria: −
E. coli; E. coli ECO 4
  Hydrolysis by Gram negative bacteria: −
E. coli; E. coli ECO 5
  Hydrolysis by Gram negative bacteria: −
E. coli; E. coli ECO 6
  Hydrolysis by Gram negative bacteria: −
E. coli; E. coli ECO 7
  Hydrolysis by Gram negative bacteria: −
E. coli; E. coli ECO 8
  Hydrolysis by Gram negative bacteria: −
E. coli; E. coli ECO 9
  Hydrolysis by Gram negative bacteria: −
E. coli; E. coli ECO 10
  Hydrolysis by Gram negative bacteria: −
E. coli; E. coli ECO 11
  Hydrolysis by Gram negative bacteria: −
E. coli; E. coli ECO 12
  Hydrolysis by Gram negative bacteria: −
E. coli; E. coli NCTC 10418
  Hydrolysis by Gram negative bacteria: −
Gram positive bacteria; Strains of Listeria and enterococci
  colony colour and diffusion: intense black colonies with no diffusion of the black chelate
Gram positive bacteria; of 74 Gram positive bacteria tested, 300 mg/l, 18 hours
  Gram positive bacteria tested that hydrolysed the substrate: 22.5%
Vibrio anguillarum
  Hydrolysis by Gram negative bacteria: −
Enterococcus casseflavus
  Hydrolysis by Gram positive organisms: ++
Gram negative bacteria; of 120 Gram negative bacteria tested
  strains known to be producers of β-glucosidase which did not appear to hydrolyse the substrate: 11 strains
Gram negative bacteria; of 120 Gram negative bacteria tested, 300 mg/l, 18 hours
  Gram negative bacteria tested that hydrolysed the substrate: 20%
Gram negative bacteria; positive Gram negative strains, agar
  colouration and diffusion of positive strains: brown/black colouration which showed no diffusion in agar
Streptococcus pneumoniae
  Hydrolysis by Gram positive organisms: −
Streptococcus oralis
  Hydrolysis by Gram positive organisms: −
Salmonella oranienburg
  Hydrolysis by Gram negative bacteria: −
Streptococcus salivarius
  Hydrolysis by Gram positive organisms: ++
Serratia marcescens
  Hydrolysis by Gram negative bacteria: +
C. diphtheriae; C. diphtheriae NCTC 3987
  Hydrolysis by Gram positive organisms: −
C. diphtheriae; C. diphtheriae NCTC 10356
  Hydrolysis by Gram positive organisms: −
C. diphtheriae; C. diphtheriae NCTC 11397
  Hydrolysis by Gram positive organisms: −
C. diphtheriae; Corynebacterium diphtheria NEQAS
  Hydrolysis by Gram positive organisms: −
[1]; Staphylococcus saprophyticus 1
  Hydrolysis by Gram positive organisms: −
[1]; Staphylococcus saprophyticus 2
  Hydrolysis by Gram positive organisms: −
[1]; Staphylococcus saprophyticus 3
  Hydrolysis by Gram positive organisms: −
[1]; Staphylococcus saprophyticus 4
  Hydrolysis by Gram positive organisms: −
[1]; Staphylococcus saprophyticus 5
  Hydrolysis by Gram positive organisms: −
Salmonella panama
  Hydrolysis by Gram negative bacteria: −
Vibrio metschnikovii
  Hydrolysis by Gram negative bacteria: −
Vibrio cincinnatiensis
  Hydrolysis by Gram negative bacteria: +
